Source: ChEMBL document CHEMBL1201862, “PubChem BioAssay data set” (2004)
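Protocol summary: plate cells (96-well), add compound at 5 concentrations, incubate 48 h, interpolate endpoints linearly. GI50: concentration for 50% inhibition of growth.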 The source made the active and inactive calls. Cut-off read from the data, not from the text of the source: active = GI50 up to about 1.1 µM and inactive = higher.

Legend:
Test in all cases: inhibition of tumour cell growth, NCI panel, 48 h
SNB-75 = tested on: SNB-75
UO-31 = tested on: UO-31
M14 = tested on: M14
PC-3 = tested on: PC-3
RXF 393 = tested on: RXF 393
SK-MEL-2 = tested on: SK-MEL-2
EKVX = tested on: EKVX
HCC 2998 = tested on: HCC 2998
NCI-H460 = tested on: NCI-H460
MDA-MB-231 = tested on: MDA-MB-231
SN12C = tested on: SN12C
UACC-62 = tested on: UACC-62
K562 = tested on: K562
786-0 = tested on: 786-0
Hs-578T = tested on: Hs-578T
HOP-92 = tested on: HOP-92
OVCAR-3 = tested on: OVCAR-3
CAKI-1 = tested on: CAKI-1
SK-MEL-28 = tested on: SK-MEL-28
UACC-257 = tested on: UACC-257
ACHN = tested on: ACHN
HCT-116 = tested on: HCT-116
SF-295 = tested on: SF-295
HOP-62 = tested on: HOP-62
SF-539 = tested on: SF-539
NCI-H226 = tested on: NCI-H226
MCF7 = tested on: MCF7
A549 = tested on: A549
IGROV-1 = tested on: IGROV-1
RPMI-8226 = tested on: RPMI-8226
MDA-N = tested on: MDA-N
KM12 = tested on: KM12
NCI/ADR-RES = tested on: NCI/ADR-RES
MDA-MB-435 = tested on: MDA-MB-435
NCI-H23 = tested on: NCI-H23
OVCAR-4 = tested on: OVCAR-4
HL-60 = tested on: HL-60
CCRF-CEM = tested on: CCRF-CEM
TK-10 = tested on: TK-10
T47D = tested on: T47D
NCI-H522 = tested on: NCI-H522
SK-MEL-5 = tested on: SK-MEL-5
OVCAR-5 = tested on: OVCAR-5
HT-29 = tested on: HT-29
SR = tested on: SR
SK-OV-3 = tested on: SK-OV-3
SF-268 = tested on: SF-268
OVCAR-8 = tested on: OVCAR-8
SW-620 = tested on: SW-620
A498 = tested on: A498
U-251 = tested on: U-251
LOX IMVI = tested on: LOX IMVI
BT-549 = tested on: BT-549
Malme-3M = tested on: Malme-3M
HCT-15 = tested on: HCT-15

## N/N=C(\C(=O)Nc1ccc(Cl)cc1Cl)C(c1cnc2ccccc2n1)[N+](=O)[O-] (stereo not given)
SNB-75
  GI50: > 100 µM (inactive)
UO-31
  GI50: 44.2 µM (inactive)
M14
  GI50: > 100 µM (inactive)
PC-3
  GI50: > 100 µM (inactive)
RXF 393
  GI50: > 100 µM (inactive)
SK-MEL-2
  GI50: > 100 µM (inactive)
EKVX
  GI50: > 100 µM (inactive)
HCC 2998
  GI50: > 100 µM (inactive)
NCI-H460
  GI50: > 100 µM (inactive)
MDA-MB-231
  GI50: > 100 µM (inactive)
SN12C
  GI50: > 100 µM (inactive)
UACC-62
  GI50: > 100 µM (inactive)
K562
  GI50: > 100 µM (inactive)
786-0
  GI50: > 100 µM (inactive)
Hs-578T
  GI50: > 100 µM (inactive)
HOP-92
  GI50: > 100 µM (inactive)
OVCAR-3
  GI50: > 100 µM (inactive)
CAKI-1
  GI50: > 100 µM (inactive)
SK-MEL-28
  GI50: > 100 µM (inactive)
UACC-257
  GI50: > 100 µM (inactive)
ACHN
  GI50: 71.1 µM (inactive)
HCT-116
  GI50: 26.7 µM (inactive)
SF-295
  GI50: > 100 µM (inactive)
HOP-62
  GI50: > 100 µM (inactive)
SF-539
  GI50: > 100 µM (inactive)
NCI-H226
  GI50: > 100 µM (inactive)
MCF7
  GI50: > 100 µM (inactive)
A549
  GI50: > 100 µM (inactive)
IGROV-1
  GI50: 8.47 µM (inactive)
RPMI-8226
  GI50: > 100 µM (inactive)
MDA-N
  GI50: > 100 µM (inactive)
KM12
  GI50: > 100 µM (inactive)
NCI/ADR-RES
  GI50: > 100 µM (inactive)
MDA-MB-435
  GI50: > 100 µM (inactive)
NCI-H23
  GI50: > 100 µM (inactive)
OVCAR-4
  GI50: > 100 µM (inactive)
HL-60
  GI50: > 100 µM (inactive)
CCRF-CEM
  GI50: > 100 µM (inactive)
TK-10
  GI50: > 100 µM (inactive)
T47D
  GI50: > 100 µM (inactive)
NCI-H522
  GI50: > 100 µM (inactive)
SK-MEL-5
  GI50: > 100 µM (inactive)
OVCAR-5
  GI50: > 100 µM (inactive)
HT-29
  GI50: > 100 µM (inactive)
SR
  GI50: > 10 µM (inactive)
SK-OV-3
  GI50: > 100 µM (inactive)
SF-268
  GI50: > 100 µM (inactive)
OVCAR-8
  GI50: > 100 µM (inactive)
SW-620
  GI50: > 100 µM (inactive)
A498
  GI50: > 100 µM (inactive)
U-251
  GI50: > 100 µM (inactive)
LOX IMVI
  GI50: > 100 µM (inactive)
BT-549
  GI50: > 100 µM (inactive)
Malme-3M
  GI50: > 100 µM (inactive)
HCT-15
  GI50: > 100 µM
